“And” between values parts separate entries of the source, which are not always exact repeats. Equal entries are not always repeated. Inconclusive results and toxic doses are left out.

The experiment has as its system BDF1 mice, Lewis lung carcinoma iv, survival T/C. Kind of experiment: NCI In Vivo Anticancer Drug Screen. Data for tumor model Lewis Lung Carcinoma (intravenous) in B6D2F1 (BDF1) mice. The following applies: endpoint: median survival time, higher = longer survival. The procedure:
The antitumor activity of compounds was measured in mice bearing transplantable tumors. Survival or tumor size were measured and the results are expressed as the measurement made in the treated group (T) divided by the measurement made in the vehicle treated control group (C). The tumor model used in this assay is Lewis Lung Carcinoma (intravenous) in B6D2F1 (BDF1) mice

Setting [1] is: dose: 50.0 mg/kg/injection, schedule: Q01DX009 (ip), vehicle: saline with Tween-80.
[2] abbreviates: dose: 100.0 mg/kg/injection, schedule: Q01DX009 (ip), vehicle: saline with Tween-80.
Setting [3] is: dose: 200.0 mg/kg/injection, schedule: Q01DX009 (ip), vehicle: saline with Tween-80.

For the molecule `O=NN(CCCl)C(=O)NC1CCCCC1`, the T/C is 106 % of control (dose: 1.0 mg/kg/injection, schedule: Q01DX009 (ip), vehicle: Klucel (hydroxypropylcellulose) (HPC)); 108 % of control (dose: 2.0 mg/kg/injection, schedule: Q01DX009 (ip), vehicle: Klucel (hydroxypropylcellulose) (HPC)); 120 % of control (dose: 4.0 mg/kg/injection, schedule: Q01DX009 (ip), vehicle: Klucel (hydroxypropylcellulose) (HPC)); 213 % of control (dose: 8.0 mg/kg/injection, schedule: Q01DX009 (ip), vehicle: Klucel (hydroxypropylcellulose) (HPC)); 118 % of control (dose: 16.0 mg/kg/injection, schedule: Q01DX009 (ip), vehicle: Klucel (hydroxypropylcellulose) (HPC)); 93 % of control (dose: 32.0 mg/kg/injection, schedule: Q01DX009 (ip), vehicle: Klucel (hydroxypropylcellulose) (HPC)).

As for `COc1ccc2nonc2c1`, the T/C is, setting by setting: (dose: 25.0 mg/kg/injection, schedule: Q01DX009 (ip), vehicle: saline with Tween-80) 191 % of control; under setting [1], 109 % of control; under setting [2], 101 % of control; under setting [3], 103 % of control.

On to `C=CC(C)NC(=S)NNC(=S)NC` (stereo not drawn), for which the T/C (dose: 25.0 mg/kg/injection, schedule: Q01DX009 (ip), vehicle: saline + alcohol) is 119 % of control; the T/C (dose: 50.0 mg/kg/injection, schedule: Q01DX009 (ip), vehicle: saline + alcohol) was 110 % of control; the T/C (dose: 100.0 mg/kg/injection, schedule: Q01DX009 (ip), vehicle: saline + alcohol) is 107 % of control; the T/C (dose: 200.0 mg/kg/injection, schedule: Q01DX009 (ip), vehicle: saline + alcohol) was 104 % of control; the T/C (dose: 400.0 mg/kg/injection, schedule: Q01DX009 (ip), vehicle: saline + alcohol) was 114 % of control.

As for `COC1/C=C\C=C(/C)C(=O)NC2=CC(=O)C=C(C2=O)C(OC)C(C)CC(OC)C(OC)C(C)/C=C(/C)C1OC(N)=O` (stereo not drawn), the T/C is 112 % of control (dose: 0.18 mg/kg/injection, schedule: Q01DX009 (ip), vehicle: Klucel (hydroxypropylcellulose) (HPC)); 115 % of control (dose: 0.37 mg/kg/injection, schedule: Q01DX009 (ip), vehicle: Klucel (hydroxypropylcellulose) (HPC)); 112 % of control (dose: 0.75 mg/kg/injection, schedule: Q01DX009 (ip), vehicle: Klucel (hydroxypropylcellulose) (HPC)); 105 % of control (dose: 1.5 mg/kg/injection, schedule: Q01DX009 (ip), vehicle: Klucel (hydroxypropylcellulose) (HPC)).

With `COC(=O)CC(N)C(=O)O` (stereo not drawn), the T/C is 115 % of control (dose: 12.5 mg/kg/injection, schedule: Q01DX009 (ip), vehicle: saline); 95 % of control (dose: 50.0 mg/kg/injection, schedule: Q01DX009 (ip), vehicle: saline); 109 % of control (dose: 100.0 mg/kg/injection, schedule: Q01DX009 (ip), vehicle: saline); 100 % of control (dose: 200.0 mg/kg/injection, schedule: Q01DX009 (ip), vehicle: saline).

Turning to `C=C(C)/C([O-])=N/[N+](C)(C)CC(O)CCCCCCCCCCCC` (stereo not drawn), the T/C was 99 % of control (dose: 12.5 mg/kg/injection, schedule: Q01DX001 (ip), vehicle: saline); 86 % of control (dose: 50.0 mg/kg/injection, schedule: Q01DX001 (ip), vehicle: saline); 92 % of control (dose: 100.0 mg/kg/injection, schedule: Q01DX001 (ip), vehicle: saline); 104 % of control (dose: 200.0 mg/kg/injection, schedule: Q01DX001 (ip), vehicle: saline); 87 % of control (dose: 400.0 mg/kg/injection, schedule: Q01DX001 (ip), vehicle: saline).

Regarding `CC1OC(=O)C(C(C)C)NC(=O)C(C(C)C)OC(=O)C(C(C)C)NC(=O)C(C)OC(=O)C(C(C)C)NC(=O)C(C(C)C)OC(=O)C(C(C)C)NC(=O)C(C)OC(=O)C(C(C)C)NC(=O)C(C(C)C)OC(=O)C(C(C)C)NC1=O` (stereo not drawn), the T/C was 94 % of control (dose: 1.25 mg/kg/injection, schedule: Q01DX009 (ip), vehicle: saline with Tween-80); 102 % of control (dose: 2.5 mg/kg/injection, schedule: Q01DX009 (ip), vehicle: saline with Tween-80); 98 % of control (dose: 5.0 mg/kg/injection, schedule: Q01DX009 (ip), vehicle: saline with Tween-80); 102 % of control (dose: 10.0 mg/kg/injection, schedule: Q01DX009 (ip), vehicle: saline with Tween-80); 89 % of control (dose: 20.0 mg/kg/injection, schedule: Q01DX009 (ip), vehicle: saline with Tween-80); 89 % of control (dose: 40.0 mg/kg/injection, schedule: Q01DX009 (ip), vehicle: saline with Tween-80).

Consider `CC1=C(/C=C/C(C)=C/C=C/C(C)=C/C=O)C(C)(C)CCC1`, for which the T/C is 96 % of control (dose: 4.0 mg/kg/injection, schedule: Q01DX005 (ip), vehicle: saline with Tween-80); 96 % of control and 109 % of control (dose: 8.0 mg/kg/injection, schedule: Q01DX005 (ip), vehicle: saline with Tween-80); 95 % of control and 116 % of control (dose: 16.0 mg/kg/injection, schedule: Q01DX005 (ip), vehicle: saline with Tween-80); 108 % of control (dose: 32.0 mg/kg/injection, schedule: Q01DX005 (ip), vehicle: saline with Tween-80); 95 % of control and 96 % of control (dose: 64.0 mg/kg/injection, schedule: Q01DX005 (ip), vehicle: saline with Tween-80).

Regarding `Clc1ccc2c(Cl)ncnc2c1`, the T/C is, setting by setting: under setting [1], 107 % of control; under setting [2], 118 % of control; under setting [3], 111 % of control.

On to `Cc1ccc(Cl)c2ccccc12`, for which the T/C is 98 % of control under setting [1], 98 % of control under setting [2] and 107 % of control under setting [3].

Consider `COc1cccc2c1C(=O)c1c(O)c3c(c(O)c1C2=O)C[C@@](O)(C(=O)CO)C[C@@H]3OC1CC(N)C(O)C(C)O1` (stereo partly drawn), for which the T/C is, setting by setting: (dose: 0.12 mg/kg/injection, schedule: Q01DX009 (ip), vehicle: saline) 97 % of control; (dose: 0.25 mg/kg/injection, schedule: Q01DX009 (ip), vehicle: saline) 99 % of control and 110 % of control and 90 % of control; (dose: 0.5 mg/kg/injection, schedule: Q01DX009 (ip), vehicle: saline) 99 % of control and 106 % of control and 113 % of control; (dose: 0.5 mg/kg/injection, schedule: Q04DX003 (ip), vehicle: saline) 100 % of control; (dose: 0.88 mg/kg/injection, schedule: Q01DX009 (ip), vehicle: saline) 107 % of control; (dose: 1.0 mg/kg/injection, schedule: Q01DX009 (ip), vehicle: saline) 100 % of control and 111 % of control and 280 % of control. The T/C reads like this: (dose: 1.0 mg/kg/injection, schedule: Q04DX003 (ip), vehicle: saline) 92 % of control and 95 % of control; (dose: 1.26 mg/kg/injection, schedule: Q01DX009 (ip), vehicle: saline) 121 % of control; (dose: 1.92 mg/kg/injection, schedule: Q04DX003 (ip), vehicle: saline) 111 % of control; (dose: 2.0 mg/kg/injection, schedule: Q01DX001 (ip), vehicle: saline) 112 % of control and 122 % of control; (dose: 2.0 mg/kg/injection, schedule: Q01DX009 (ip), vehicle: saline) 112 % of control and 115 % of control; (dose: 2.0 mg/kg/injection, schedule: Q04DX003 (ip), vehicle: saline) 96 % of control and 110 % of control. The T/C runs as follows: (dose: 2.57 mg/kg/injection, schedule: Q01DX009 (ip), vehicle: saline) 197 % of control; (dose: 3.6 mg/kg/injection, schedule: Q01DX001 (im), vehicle: water) 113 % of control; (dose: 3.9 mg/kg/injection, schedule: Q04DX003 (ip), vehicle: saline) 225 % of control; (dose: 4.0 mg/kg/injection, schedule: Q01DX001 (ip), vehicle: saline) 114 % of control; (dose: 4.0 mg/kg/injection, schedule: Q04DX003 (ip), vehicle: saline) 101 % of control and 105 % of control; (dose: 4.8 mg/kg/injection, schedule: Q01DX001 (iv), vehicle: saline) 114 % of control and 115 % of control and 123 % of control. Moreover, the T/C is 253 % of control (dose: 5.6 mg/kg/injection, schedule: Q04DX003 (ip), vehicle: saline); 101 % of control (dose: 6.0 mg/kg/injection, schedule: Q01DX001 (im), vehicle: water); 151 % of control (dose: 6.86 mg/kg/injection, schedule: Q01DX001 (iv), vehicle: saline); 154 % of control and 169 % of control (dose: 8.0 mg/kg/injection, schedule: Q01DX001 (ip), vehicle: saline); 105 % of control (dose: 8.0 mg/kg/injection, schedule: Q04DX003 (ip), vehicle: saline); 195 % of control (dose: 9.8 mg/kg/injection, schedule: Q01DX001 (iv), vehicle: saline). For the same molecule, the T/C (dose: 14.0 mg/kg/injection, schedule: Q01DX001 (iv), vehicle: saline) is 175 % of control and 333 % of control.

On to `C[C@H](CCC(=O)O)[C@H]1CC[C@H]2[C@@H]3[C@H](O)C[C@@H]4C[C@H](O)CC[C@]4(C)[C@H]3C[C@H](O)[C@]12C` (tested in a mixture with another compound), for which the T/C by setting is: under setting [1], 109 % of control; under setting [2], 108 % of control; under setting [3], 121 % of control.

(Values after PubChem BioAssay AID274 (DTP/NCI, 2004).)
